Results on six compounds are retold here after patent publication US11254640B2, “N-substituted indoles and other heterocycles for treating brain disorders” (The Regents of the University of California, priority 2019, dated 2022).

Data set [1] relates to cortical neurons. The data set can be described thus: Dendritogenesis assay, Sholl analysis. It is filed as cell-based, rat. Particulars: for Emax at 10 µM: Rattus norvegicus, Cortical neurone, Nmax with vehicle (DMSO) = 0% and ketamine = 100%, read-out: % efficacy in sholls; for psychoplastogenic efficacy and potency, concentration-response (Nmax): concentrations ranging from 10 μM to 10 pM (FIG. 6). In short, it runs like this:
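Rat cortical neurons (timed-pregnant Sprague Dawley) were treated at DIV3 with compound at 10 μM unless noted (0.1% DMSO) for 1 h, washed out, grown 71 h more. Fixed, MAP2-immunostained, imaged; Sholl Nmax, with % efficacy scaled to DMSO (0%) and ketamine (100%).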

The subject of data set [2] is rat cortical neurons. The data set can be described thus: Neurite outgrowth assay. In kind it is cell-based. Particulars: Cortical neurone, 1 hour treatment at DIV 4, analysed DIV 7, fold vs DMSO control. In short, it runs like this:
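Embryonic day 18 rat cortical neurons, 20,000 cells/well in Neurobasal/B27, were exposed at DIV 4 to 10 μM compound for 1 hour, then washed out. At DIV 7, β-III-tubulin immunostaining and automated imaging gave neurite length, branch points, root and extremity counts, reported as fold-change versus DMSO; triplicates.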

The test system of data set [3] is C57BL/6J mice. The data set can be described thus: Head twitch response (HTR) assay. It is filed as in vivo, mouse. Particulars: intraperitoneal injection, head-twitches over 20 mins (FIG. 8, FIG. 9). The source says:
Animals. For the dendritogenesis experiments, timed pregnant Sprague Dawley rats were obtained from Charles River Laboratories (Wilmington, Mass.). For the head-twitch response assay, male and female C57BL/6J mice were obtained from Jackson Laboratory (Sacramento, Calif.). Mice were housed in a temperature and humidity-controlled room maintained on a 12-h light/dark cycle in groups of 4-5 (same sex). Animals weighed between 17 and 30 g at the time of the experiments. All experimental procedures involving rodents were approved by the UC Davis Institutional Animal Care and Use Committee (IACUC) and adhered to principles described in the National Institutes of Health Guide for the Care and Use of Laboratory Animals. The University of California, Davis and the University of California, San Francisco are accredited by the Association for Assessment and Accreditation of Laboratory Animal Care International (AAALAC).
Head twitch response experiments. Mice (9-10 weeks old) were injected intraperitoneally with compound (injection volume 5 ml/kg), placed in an empty cage, and filmed for 20 minutes. Cages were cleaned with 70% ethanol between experiments.

Data set [4] has as its system rats. Particulars: rats trained to discriminate DOM from saline, cited from earlier work.
Setting [5] is: read-out: Neurite Average Length @ 10 μM.
Where [6] appears, read: read-out: Neurite Branch Points: @ 10 μM.

Entries after “also recorded” stand apart in the source; their conditions may differ. Like-named read-outs stand apart in the source and are kept apart here.

The melting point is the temperature, or range, at which the solid turns liquid. Turning to `COc1cccc2c1ccn2CCN(C)C.O=C(O)/C=C/C(=O)O` [Example 3, 2-(4-methoxy-1H-indol-1-yl)-N,N-dimethylethan-1-amine], the melting point is 140 to 145 °C. In addition, in data set [1] (10 μM), the Emax at 10 µM came out at 26%. Moreover, the fold induction at 10 µM in data set [2] (setting [5]) was less than 1.5. In data set [2] (setting [6]), the fold induction at 10 µM was 1.5 to 3.

On to `COc1ccc2c(ccn2CCN(C)C)c1.O=C(O)/C=C/C(=O)O` [Example 4, 2-(5-methoxy-1H-indol-1-yl)-N,N-dimethylethan-1-amine], for which the melting point fell in the range of 140 to 142 °C. Moreover, the “head-twitch response (hallucinogenic potential)” value (shortened to “head-twitch response”) in data set [3] is listed as “low hallucinogenic potential; also recorded: did not produce any HTR”. Moreover, in data set [4], the “substitution for hallucinogenic training drug (DOM) in drug discrimination” value (“substitution” below) was “low hallucinogenic potential”. Moreover, the “substitution” value in data set [4] (listed as 5-MeO-isoDMT) is on record as “does not”. For the same compound, in data set [1] (10 μM), the Emax at 10 µM is 65%. In addition, in data set [1], the “psychoplastogenic efficacy and potency, concentration-response (Nmax)” value is reported as “exceptional psychoplastogen”. Further, the fold induction at 10 µM in data set [2] (setting [5]) is 1.5 to 3. Besides, the fold induction at 10 µM in data set [2] (setting [6]) was in the range of 1.5 to 3.

With `COc1ccc2ccn(CCN(C)C)c2c1` [Example 5, 2-(6-methoxy-1H-indol-1-yl)-N,N-dimethylethan-1-amine], the “head-twitch response” value in data set [3] is recorded as “significantly less potent”. Besides, in data set [4], the “substitution” value is listed as “substitutes”. Further, the Emax at 10 µM in data set [1] (10 μM) worked out at 95%. In data set [1], the “psychoplastogenic efficacy and potency, concentration-response (Nmax)” value is “comparable maximum efficacies and had similar potencies as isosteric DMTs (1 and 28)”. The “dendritic arbor complexity / neuronal growth (Nmax of Sholl plots)” value in data set [1] (cortical neurons, 10 μM) is “performed identically to 28 and 29”. In addition, the fold induction at 10 µM in data set [2] (setting [5]) and in data set [2] (setting [6]) was 1.5 to 3 each time.

Regarding `COc1cccc2ccn(CCN(C)C)c12.O=C(O)/C=C/C(=O)O` [Example 6, 2-(7-methoxy-1H-indol-1-yl)-N,N-dimethylethan-1-amine], the melting point lay in the range of 120 to 123 °C. For the same compound, in data set [1] (10 μM), the Emax at 10 µM was determined as 92%. The fold induction at 10 µM in data set [2] (setting [5]) fell in the range of 1.5 to 3. The fold induction at 10 µM in data set [2] (setting [6]) was in the range of 1.5 to 3.

Consider `COc1ccc2c(ccn2C[C@@H](C)N(C)C)c1` [Example 59, (R)-1-(5-methoxy-1H-indol-1-yl)-N,N-dimethylpropan-2-amine], for which, in data set [3], the “head-twitch response” value was “did not produce any HTR”. The fold induction at 10 µM is 1.5 to 3 in data set [2] (setting [5]) and more than 3 in data set [2] (setting [6]).

As to `C[C@H](Cn1ccc2cc(F)ccc21)N(C)C` [Example 60, (R)-1-(5-fluoro-1H-indol-1-yl)-N,N-dimethylpropan-2-amine], the “head-twitch response” value in data set [3] is on record as “did not produce any HTR”. Further, the fold induction at 10 µM in data set [2] (setting [5]) and in data set [2] (setting [6]) was 1.5 to 3 throughout.
